The text below walks through data of patent US11944613B2, “CYP2J2 antagonists in the treatment of pain” (FRAUNHOFER-GESELLSCHAFT ZUR FÖRDERUNG DER ANGEWANDTEN …, priority 2014, dated 2024).

Data set [1] deals with lamina II neurons of spinal cord slices. The data set is described as follows: sEPSC recordings in lamina II neurons of spinal cord slices. Type of data set: cell-based. The method, then: (d) Frequency of sEPSCs. […] (E) Amplitude of sEPSCs. […] To confirm the effect of TRPV1 sensitization by 9,10-EpOME with electrophysiological means, the inventors measured sEPSCs from lamina II neurons of spinal cord slices using two capsaicin stimulations [1 μM] and incubating the cells prior to the second capsaicin stimulus with 9,10-EpOME [1 μM] (FIG. 3C). […] In combination with capsaicin, however, the sEPSC frequency was strongly potentiated (FIG. 3D). However, no difference in the amplitude of sEPSCs could be observed with either 9,10-EpOME, […] or the combination of both substances (FIG. 3E).

For a further data set, the target named is CYP3A4 (Homo sapiens, UniProt P08684). Briefly: CYP3A4 P450-Glo luciferase assay (unselective control).
Sequence of CYP3A4 (P08684 whole entry): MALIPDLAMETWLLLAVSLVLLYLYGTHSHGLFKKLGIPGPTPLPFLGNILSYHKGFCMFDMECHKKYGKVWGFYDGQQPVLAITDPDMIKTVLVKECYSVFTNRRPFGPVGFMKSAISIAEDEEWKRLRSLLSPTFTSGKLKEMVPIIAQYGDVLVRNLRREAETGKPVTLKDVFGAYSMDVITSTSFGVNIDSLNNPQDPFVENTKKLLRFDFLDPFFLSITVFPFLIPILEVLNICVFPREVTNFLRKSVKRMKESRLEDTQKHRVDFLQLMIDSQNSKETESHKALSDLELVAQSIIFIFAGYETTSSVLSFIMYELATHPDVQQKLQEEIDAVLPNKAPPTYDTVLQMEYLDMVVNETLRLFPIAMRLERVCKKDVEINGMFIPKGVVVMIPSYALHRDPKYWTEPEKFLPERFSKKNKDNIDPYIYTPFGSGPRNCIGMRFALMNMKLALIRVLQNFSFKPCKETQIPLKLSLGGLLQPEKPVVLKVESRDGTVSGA
The next data set deals with T1, CYP2J2 (Homo sapiens, UniProt P51589).
T1 sequence (P51589 1-502): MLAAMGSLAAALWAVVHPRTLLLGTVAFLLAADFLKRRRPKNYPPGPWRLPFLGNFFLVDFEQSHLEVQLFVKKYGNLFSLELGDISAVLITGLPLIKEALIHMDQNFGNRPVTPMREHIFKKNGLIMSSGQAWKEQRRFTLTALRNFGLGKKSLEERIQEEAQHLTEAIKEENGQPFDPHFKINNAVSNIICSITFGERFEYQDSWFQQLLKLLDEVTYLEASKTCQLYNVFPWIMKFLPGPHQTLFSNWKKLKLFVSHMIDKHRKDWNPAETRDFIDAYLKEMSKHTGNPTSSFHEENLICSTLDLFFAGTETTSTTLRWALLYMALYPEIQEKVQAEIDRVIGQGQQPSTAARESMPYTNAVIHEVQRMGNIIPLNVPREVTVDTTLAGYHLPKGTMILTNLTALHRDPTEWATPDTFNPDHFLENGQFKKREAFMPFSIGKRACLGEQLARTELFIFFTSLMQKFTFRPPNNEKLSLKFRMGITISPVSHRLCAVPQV
Briefly: CYP2J2 P450-Glo luciferase assay (FDA Approved Drug Library screen). The following applies: read-out: Average inhibition CYP2J2 (%).

SMILES strings stand for the structures. Where a name gives a salt, the structure may show the parent alone.

Regarding `COc1cc(CNC(=O)CCCC/C=C/C(C)C)ccc1O` [capsaicin], the “frequency of sEPSCs, substance alone” value in data set [1] (1 mM as printed in legend, baseline 6.9±0.4 Hz, n=5 neurons) is recorded as 13.7±0.4 Hz. Further, in data set [1] (n=5 neurons/group), the “amplitude of sEPSCs” value was “no significant effects”.
A word on the inhibition: it is the share of the control response that was lost under treatment. `CC(COc1ccccc1)N(CCCl)Cc1ccccc1` (stereo not shown) [c089, Phenoxybenzamine•HCl] came in with an inhibition at 30 min, 10 μM on CYP3A4 of 17.9%. For the same molecule, on CYP2J2, the inhibition at 10 µM was determined as 75%.
